Legend:
[1] = biological target: T1, E6 binding to E6BP and E6AP (Human papillomavirus type 16, UniProt P03126); test: GST-pulldown experiment, in vitro translated E6 binding to GST-E6BP/GST-E6AP; set-up: species or system HPV-16; settings: 35S-Cys in vitro translated E6
T1 construct: The open reading frame of HPV-16 E6, cloned into the Hind III and PstI site of the pSP64 plasmid; made in house; host or cells: TNT-SP6 coupled reticulocyte lysate (Promega) for E6; E. coli AB1899 for the GST fusions
Experimental: The open reading frame of HPV-16 E6, cloned into the Hind III and PstI site of the pSP64 plasmid (33), was in vitro translated with ^35S-cysteine by using the TNT-SP6 Coupled Reticulocyte Lysate System as recommend by the manufacturer (Promega). All washing and binding reactions were performed with the E6BP-binding buffer described (5) but without DTT (100 mM NaCl, 100 mM Tris-HCl pH8.0, 1% NP40, 0.1% nonfat dry milk and 1 mM PMSF. 40 μl of in vitro translated E6 plus 360 μl of E6BP-binding buffer were incubated for 2 hrs at room temperature with test compounds at difference concentrations from 0–1 mM (dissolved in DMSO at 1%), 5 mM EDTA, and H2O2 at 0.3% (85 mM). The sample was then passed over columns captaining glutathione-sepharose beads with bound GST, GST-E6, GST-E6BP or GST-E6AP proteins. The beads were heated to 95° C. in 50 μl Laemmli sample buffer (BIO-RAD) with 2.5% 2-mercaptoethanol, subjected to electrophoresis on a 15% polyacrylamide gel, fixed, stained, and autoradiographed. Interference with complex formation identified reactive compounds. Desitometric quantification was performed with a BIO-RAD/GS700 imaging desitometer.

[2] = test system: HT3, MCF7, HaCat and HeLa-fibroblast hybrid cell line 444; test: Cell viability (WST1 assay), HPV-negative cells and 444 hybrid; type: cell-based, human; settings: treated 3 times in 3 days
Source text: (§1) All cell lines were obtained from the American Type Culture Collection (Manassas, Va.) unless otherwise noted. SiHa (human cervical epithelial tumor line, HPV16-positive), CaSki (human cervical epithelial tumor line, HPV16-positive), HaCat (immortalized human skin epithelial cell line, HPV-negative), HeLa (human cervical epithelial tumor line, HPV18-positive), 444 (hybrid of HeLa and fibroblast, HPV18-positive) obtained from Eric Stanbridge (Universitv of California, Irvine), MCF7 (human mammary epithelial tumor cell line, HPV-negative), HT3 (human cervical epithelial tumor cell line, HPV-negative) was obtained from the German Cancer Research Institute/DKFZ-Heidelberg, and HepG2, (human liver epithelial tumor cell line, HPV-negative), were grown in Dulbecco's modified Eagle medium (DMEM) supplemented with 10% fetal calf serum, 100 U penicillin and 1000 U streptomycin. Cells were allowed to attach to the surface of microwell dishes overnight and subsequently, incubated with medium containing the zinc ejecting compounds at the concentrations (10–100 μM). Viability of the cells was scored by measuring the absorption of the tetrazolium salt WST1 (Roche Molecular Biochemicals, Mannheim, Germany) in an Elisa-plate reader (Tecan, Salzburg, Austria) at a wavelength of 450 nm and a reference wavelength of 630 nm. […]

[3] = biological target: T2, binding of E6 with E6AP and E6BP (Human papillomavirus type 16, UniProt P03126); set-up: species or system HPV-16
T2 construct: The full length HPV16 E6 gene was amplified via polymerase chain reaction and cloned in the vector pGeX4T2; made in house; host or cells: E. coli strain AB1899
Source text: BIACORE allows real time analysis of bimolecular interactions without the need for isotopic or enzymatic labelling. BIACORE technology is based on the optical surface plasmon resonance (SPR), a technique that allows for detecting small changes in the refractive index on the surface of a thin gold film coated with a dextran matrix. Typically, one of the binding partners (termed the ligand) is covalently linked to the dextran matrix, while the other partner (termed the analyte) is introduced in a flow passing over the surface. The change in refractive index resulting from the interaction of the molecules is expressed in resonance units (RU): a SPR response of 1000 RU corresponds to a change of the surface concentration of the analyte of 1 ng protein/mm^2. GST-E6AP and GST-E6BP were used as ligands and GSTE6 was used as the analyte. […] Further controls included using the dextran matrix alone or GST as the ligand.
Binding of GST-E6 to GST-E6BP, GST-E6AP and GST was monitored by surface plasmon resonance (SPR) on a BIACORE 2000 machine (Biacore AB, Uppsala, Sweden). […] Typically 6000–10000 RU of GST, E6BP and E6AP were immobilized on three difference flowcells. Aliquots of purified HPV-16 GST-E6 (7 μM in 10 mM GSH, 50 mM Tris/PBS buffer, pH 8.2) were incubated with either 400 μM compound, or 5 mM EDTA, or 0.6% (170 mM) H2O2 for 2 hrs at room temperature. Then 10 μl of sample was injected at 1 μl/min over the three immobilized ligands using the sequential flow mode. The interactions between GST-E6 and ligands were monitored by the change of resonance signal in arbitrary units (RU).

[4] = test system: SiHa, HeLa, 444 and HaCat cells; test: Microscopic observation of cell viability (FIG. 4); type: cell-based, human; settings: E6-dependent cells (SiHa and HeLa) vs E6-independent cells (444 and HaCat)
Experimental: FIG. 4 photographically depicts viability of SiHa, HeLa, 444 and HaCat cells when treated with C16 compound.
Cell viability and the cytotoxic specificity for a number of other compounds of Formula (I) and (II) were also determined.

SiHa, Caski, HeLa = test: Cell viability (WST1 assay), cervical epithelial tumour cells; type: cell-based, human; settings: 50 μM, treated 3 times in 3 days
Source text: as §1

T2 sequence (P03126 whole entry): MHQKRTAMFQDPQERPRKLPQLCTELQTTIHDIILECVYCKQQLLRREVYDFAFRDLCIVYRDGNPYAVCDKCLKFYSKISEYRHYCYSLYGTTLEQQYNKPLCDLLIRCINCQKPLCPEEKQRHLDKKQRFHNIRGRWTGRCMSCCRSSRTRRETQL
T1 sequence (P03126 whole entry, the tested form may be a part): as the sequence (P03126 whole entry) above

C1CN(SSN2CCOCC2)CCO1 [Compound C16] was tested, and the “inhibition of E6 binding to E6BP and E6AP (GST-pulldown, FIG. 2)” value [1] was “inhibits E6 binding to both cellular proteins”, the “effect on cell viability” value [2] was “little or no effect” and the “inhibitory activity for E6 binding to both E6BP and E6AP (BIACORE)” value [3] was “inhibitory activity for E6 binding to both E6BP and E6AP”. The “BIACORE (E6BP/E6AP)” value ([3]; 400 μM compound, 2 hrs at room temperature, GST-E6 7 μM in 10 mM GSH) was “+ (compound interferes in binding of E6 with E6AP and E6BP, binding is less than 50% of the corresponding E6-DMSO value.)”, the “microscopic observation of cells” value [4] was “differential effect” and the “inhibition of cell viability” value (SiHa, Caski, HeLa) was “substantial and specific inhibition of cell viability”.
